In a melting point compilation (Tetko et al.; mined from patent text by program, amines drawn as free bases though some values may be those of a salt) one finds melting point data, which are given here for 89 compounds.

Where only a bound is given, the exact number is not on record here.

By melting point is commonly meant the temperature of the solid-liquid transition. With `CC(=O)C1Cc2ccc(O)c(O)c2C1=O` (centres undefined), the melting point was 159 to 160 °C. With `CC(C)c1ccc(-c2nc(-c3cccc(C(=O)O)c3)cs2)cc1` the figure was 193 to 195 °C; with `CCCCc1nc2ccccc2n1Cc1ccc(C(=O)Nc2cccc3[nH]ccc23)cc1`, 196 °C. With `CC1=N/C(=C\c2c[nH]c3cc(C)ccc23)C(=O)O1` the figure was 194 to 196 °C. `CC(=O)N1CCN(c2ccc(N)c(C)c2)CC1` had a melting point of 126 to 129 °C. With `CC(C)(C)c1cc(C(=O)Nc2cccc(SCc3cccnc3)c2)ccc1O` the figure was 95 to 100 °C. The compound `CCN1c2ccccc2Sc2ccccc21` came in with a melting point of 103 to 104 °C. For `O=c1[nH]c2ccccc2c(=O)n1CCN1CCC(C(O)c2ccc(F)cc2)CC1` (centres undefined), the melting point was 213 °C. Next, `NC(=O)N(O)CCOCc1cccs1`: 91 to 92 °C.

As for `COc1ccc(NC(=O)c2coc(Br)c2)cc1N1CCN(C)CC1`, the melting point is 185 to 187 °C. The compound `O=C(O)[C@H](Cc1ccccc1)C[C@@H](Cc1ccccc1)C(=O)O` yielded a melting point of 150 to 152 °C. With `CC(=O)[C@@H]1C/C=C(/C)C/C=C/[C@H](C)[C@H](O[Si](C)(C)C(C)(C)C)[C@@H](C)C(=O)C(C)(C)[C@@H](O[Si](C)(C)C(C)(C)C)CC(=O)O1` the figure was 85 °C.

Take `Cc1c(NC(=O)c2ccc(-c3ccc(F)cc3)cc2)ccc2cc(CN3CCC3)cnc12`: the melting point was 153 to 155 °C.

With `Cc1cccc(-n2nc(C)c3c(=O)c4ccccc4[nH]c32)n1`, the melting point is 252 °C. `CCc1nc(-c2ccc(OCCCN3CCN(C)CC3)cc2)no1` gave a melting point of 55 to 56 °C. `Cc1cc(=O)n(-c2cc(OC(C)C)c(Cl)cc2F)c(=O)n1C(F)F` returned a melting point of 97 to 99 °C. Compound `CCCC(C)(CC)C(=O)O[C@H]1C[C@H](O)C=C2C=C[C@H](C)[C@H](CC[C@@H]3C[C@@H](O)CC(=O)O3)[C@H]21` (some centres undefined) returned a melting point of 126 to 128 °C. With `O=[N+]([O-])c1cccc(/C=C/c2nc(C3CC3)cs2)c1` the figure was 90 to 95 °C.

Consider `Nc1cccnc1Nc1ccccc1C(=O)c1ccccc1`, for which the melting point was in the range of 91 to 93 °C. Next, `CNC(=O)N(N(CCCl)S(C)(=O)=O)S(C)(=O)=O`: 146 to 148 °C; `CCOC(=O)c1cn(-c2ccc(OC)cc2)c2cc(F)c(F)cc2c1=O`: 212 to 214 °C; `CC(=O)n1c(C(=O)O)cc2cc3c(cc21)OCO3`: 164 to 166 °C. `COC(=O)C(Cc1ccc(Cl)cc1)NC(=O)C1CCC(CNC(=O)OC(C)(C)C)CC1` (centres undefined): the melting point was 178 to 179 °C. Compound `CN(C)C1(c2cccc(F)c2)CCC(c2[nH]c3ccccc3c2CCc2ccncc2)CC1` (centres undefined) showed a melting point of 301 to 314 °C.

Compound `Cc1cc(-c2nnc3c4ccccc4c(OCc4ncc[nH]4)nn23)no1` showed a melting point of 188 to 189 °C. Next, `Cc1csc(C)c1NC(=O)CO`: 85 to 87 °C; `CNC(C)C/C=C/c1cnc(N)c(C)c1` (centres undefined): 78 to 81 °C; `Cc1c(NC(=O)C(C)(C)C)cccc1C(F)(F)F`: 122 °C. Next, `O=C(NCCCn1cnc(-c2ccccc2)c1)c1ccc(Cl)cc1`: 103 to 105 °C; `Cc1ccc(S(=O)(=O)N(C)F)cc1`: 42 to 44 °C. In turn, `CN(c1ccccc1-c1ccc2cnc(Nc3ccc(C4CCN(CC(N)=O)CC4)cc3)nn12)S(C)(=O)=O` showed a melting point of 170 °C. Next, `O=C(C[N+](=O)[O-])c1ccc2c(c1)CCN2`: 172 to 174 °C; `O=C1CNc2ncc(-c3cnc4[nH]ccc4c3)nc2N1CCC1CCOCC1`: 255 to 258 °C; `C=C(C#N)C(=O)OCC(C)(C)C`: 40 to 41 °C. With `CS(=O)(=O)c1ccc(-c2cnn(CC(F)(F)F)c(=O)c2Sc2nc[nH]n2)cc1` the figure was 197 to 200 °C. The compound `CC(C)C(=O)O[C@H]1[C@H](C)OC(=O)[C@@H](NC(=O)OC(C)(C)C)COC(=O)[C@@H]1Cc1ccc(F)cc1` had a melting point of 58 to 66 °C. Next, `OC(c1cccnc1)c1c[nH]c2ccc(F)cc12` (centres undefined): 131 to 133 °C; `O=C(Nc1ccc(-n2nc(C(F)(F)F)cc2C(F)(F)F)cc1)Nc1cccc([N+](=O)[O-])c1`: 203 to 204 °C; `Cc1ccc(C(=O)NC(NC(=NC#N)Nc2cccc(F)c2)C(C)(C)C)cc1` (centres undefined): 193 to 194 °C. `COc1cc2c(cc1/C=C/CCO)[nH]c1cc(-c3ccccc3Cl)c3c(c12)C(=O)NC3=O`: the melting point lay within 271 to 275 °C. With `OCc1cccc(-c2cnc3cnc(-c4ccc(O)cc4)nc3c2)c1` the figure was 232 °C. Take `CC(=O)NC(C)Cc1cc(C)c(C)cc1CC#N` (centres undefined): the melting point is 140 to 141 °C. With `CC1(CO)Cc2ccccc2C1(C)C` (centres undefined) the figure was 48 to 50 °C; with `CC(C)(C)OC(=O)NCC(=O)OCCCNc1ccc(O)c2c1C(=O)c1ccccc1C2=O`, 124 °C. With `COC(=O)Cc1cn(C)nc1O` the figure was 118 to 119 °C; with `Cc1nc2n(c1C)CCCC2=O`, 178 °C. With `Cc1nn(-c2ccc(O)cc2F)c(=O)n1C(F)F` the figure was 112 to 114 °C. Regarding `O=C1NC(=O)c2cc(Nc3ccccc3)c(Nc3ccccc3)cc21`, the melting point lay within 205 to 207 °C.

In turn, `CCOC(=O)C1=C(C(OCC)OCC)NC(C)=C(C(=O)OCCCl)C1c1cccc([N+](=O)[O-])c1` (centres undefined) displayed a melting point of 96 to 97 °C. The compound `CC1(C)CCC(C)(C)c2cc(-c3cc(-c4ccc(C(=O)O)cc4)ccc3-c3cccc(O)c3)ccc21` came in with a melting point below 70 °C. For the compound `Cc1oncc1C(=O)N1CCC[C@H](c2nc(-c3ccc[nH]3)no2)C1`, the melting point is 125 to 127 °C.

`O=C(C=Cc1cc(Br)c(O)c(Br)c1)N1CCc2c([nH]c3ccccc23)C1c1ccc2c(c1)OCO2` (centres undefined) displayed a melting point of 148 to 150 °C. Next, `CC(C)(C)OC(=O)CNC(=O)c1ccc(N)c(Cl)c1`: 116 to 117 °C. With `CCOC(=O)c1cnn(C)c1C(=O)Nc1ccn2nc(-c3ccccc3)nc2c1`, the melting point lay within 242 to 243 °C. With `O=c1[nH]c2cc(Cl)ccc2c(O)c1-c1cccc(C#Cc2ccccc2)c1` the figure was 297 to 300 °C; with `COc1ccc(C(=O)C2=C(c3ccccc3)c3ccc(OC)cc3C2)cc1`, 113 to 114 °C.

The compound `N=C(Nc1ccc(Cl)cc1)Nc1ncccc1OCc1c(F)cc(F)cc1F` displayed a melting point of 161 to 162 °C.

Compound `CCCCCCOc1ccc(NC(=O)c2cn(-c3ccc(F)cc3)nc2C)cc1C#N` gave a melting point of 160 to 161 °C. Next, `CCCC(=O)c1cnc2c(C(C)=O)cccc2c1Nc1ccc(O)cc1C`: 183 to 185 °C. Next, `Cn1cncc1C(O)(c1ccc(C=O)cc1)c1ccc2c(c1)c(-c1cccc(Cl)c1)cc(=O)n2C` (centres undefined): 208 °C. Compound `CCCN1CCc2[nH]c3ccc4scc(-c5ccccc5)c4c3c2C1` came in with a melting point of 187 to 188 °C. With `CCCCC1(CCCC)CS(=O)(=O)c2ccc(N(C)C)cc2[C@@H](c2ccc(OCCCCCSc3nnnn3CC(=O)O)cc2)[C@H]1O` the figure was 119 to 123 °C. Next, `NC1=CC(=O)CC(c2c(Cl)cccc2Cl)C1` (centres undefined): 216 to 217 °C; `CCOCc1nc2nccnc2c(=O)[nH]1`: 168 to 169 °C; `COC(=O)c1c(C(C)C)nc2c(c1-c1ccc(F)cc1)CCC(=O)N2`: 191 °C. Consider `CCOC(=O)CCCOc1ccc(C(N)=O)c(OCC2CCCCC2)c1`, for which the melting point lay in the range of 98 to 99 °C. With `Nc1cccc(Cn2c(-c3ccc(C4=CC=CNC4)cc3)ccc2-c2ccccc2Cl)n1` the figure was 163 to 166 °C. Next, `O=C(NCCSCc1cccc(Br)c1)c1c(Cl)cccc1Cl`: 74 to 76 °C.

On to `CCCC(=O)Nc1cc(S(=O)c2ccccc2)ccc1N(C(=N)NC(=O)OC)C(=O)OC` (centres undefined), for which the melting point came out at 134 °C. Next, `O=C(CCC(=O)c1ccccc1)NC1CNCCO1` (centres undefined): 87 to 89 °C. Next, `COc1ccc2c(Cc3ccc(O)cc3)c(-c3ccccc3)c(=O)oc2c1`: 235 to 236 °C; `CC(C)(CCl)c1cc(Cl)nnc1Br`: 79 to 81 °C. With `CS(=O)c1ccc(-c2nn(Cc3ccc(Cl)cc3Cl)c(=O)cc2-c2ccc(F)cc2)cc1` (centres undefined) the figure was 214 °C. Consider `COc1cc2c(cc1SC)CCN(C(C)=O)CC2`, for which the melting point lay in the range of 138 to 140 °C. Next, `O=c1c2cnc(-c3ccccc3)nc2sn1CCc1ccccc1`: 144 to 147 °C; `C#CCOc1ccc(C(=O)C=Cc2c[nH]c3ccccc23)c(O)c1`: 228 to 230 °C. Next, `O=C(NCCO[N+](=O)[O-])c1ccoc1`: 80 to 82 °C; `COc1nc2ccccc2nc1NC(=S)N1CCN(c2ccccc2SC)CC1`: 148 to 150 °C; `COCc1cc(N2CCOCC2)ncn1`: 56 °C. Compound `COc1ccc(-c2ccc(=O)n(Cc3nc(-c4ccc(F)cc4)no3)c2)cc1` yielded a melting point of 123 °C.

The compound `COc1ccc(N2Cc3ccccc3P2(=O)C(C)C)cc1` (centres undefined) returned a melting point of 135 to 137 °C. Next, `CC(C)(C)C(=O)Oc1cc2c(s1)CCN(C(C(=O)C1CC1)c1ccccc1F)C2` (centres undefined): 91 to 94 °C; `COC(=O)c1ccc2c(nc(C)n2C)c1C1=NC(C)(C(C)C)C(=O)N1` (centres undefined): 240 to 242 °C; `Nc1ccc(Br)cc1C(O)c1ccccn1` (centres undefined): 104 to 105 °C. On to `CNc1cnn(-c2cccnc2)c1Br`, for which the melting point was 77 to 79 °C.

`CCOC(=O)C(C)(C)n1c(=O)[nH]c2cccc(F)c2c1=O` had a melting point of 168 to 170 °C.

Take `Cc1ccc(S(=O)(=O)N2CCN(Cc3ccccc3)CCN(S(=O)(=O)c3ccc(C)cc3)CCN(S(=O)(=O)c3ccc(C)cc3)CC2)cc1`: the melting point fell in the range of 208 to 210 °C.

Take `CS(=O)(=O)c1ccc(-c2ccc(F)n2-c2ccc(F)cc2)cc1`: the melting point was 140 to 141 °C. With `CCC(C#N)(C(N)=O)c1ccccc1` (centres undefined) the figure was 116 to 117 °C.
